One assay addresses T1, TcRPE1 (Trypanosoma cruzi, UniProt Q4DBL0).
T1 construct: gene Tc00.1047053510257.30; full-length ORF of 735 bp, pET-22b(+), C-terminal His6 tag kept, E. coli BL21 codon Plus (DE3), subunit 27 kDa, monomer to octamer mixture
T1 sequence (Q4DBL0 1-244): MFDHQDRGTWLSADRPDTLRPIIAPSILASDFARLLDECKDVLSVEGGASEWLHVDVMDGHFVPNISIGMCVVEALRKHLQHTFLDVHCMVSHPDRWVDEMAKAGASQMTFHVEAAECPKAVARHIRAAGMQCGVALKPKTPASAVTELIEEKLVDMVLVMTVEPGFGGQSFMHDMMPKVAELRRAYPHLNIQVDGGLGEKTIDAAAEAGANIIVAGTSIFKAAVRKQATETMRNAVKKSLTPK
Nature of the assay: coupled enzyme assay (transketolase), spectrophotometric. To be noted: pH 7.25, 30°C, triethanolamine-HCl, 0.02–2 mM substrate; biphasic kinetics, authors give no constants. It counts as biochemical.

Assay [1] concerns the target recombinant ribulose-5-phosphate epimerase 2 from Trypanosoma cruzi CL Brener clone (TcRPE2) (Trypanosoma cruzi CL Brener clone). The assay can be described thus: SEC-MALS; Superose 12 column with in-line multi-angle static and dynamic light scattering (SEC-FPLC-LS), room temperature, 50 mM Tris-HCl pH 7.6, 500 mM NaCl, 0.4 ml/min; mixture of oligomeric species of one protein. For orientation: SEC sorts molecules by how far they enter the pores of the column.

Values joined by “and” are separate entries in the source; they are usually repeats but may differ in a detail not shown here. Equal values may be shown once.

For `O=C(CO)[C@H](O)[C@H](O)COP(=O)(O)O` [D-ribulose-5-phosphate], the “coupled enzyme assay (transketolase), spectrophotometric” value on TcRPE1 is recorded as “TcRPE1 showed a very complex kinetic pattern to increasing concentrations of Ru5P”.

Consider “recombinant ribulose-5-phosphate epimerase 2 from Trypanosoma cruzi CL Brener clone (TcRPE2) (enzyme)”, for which the stoichiometry N (as a rule, the number of molecules, sites or subunits per partner or assembly) in assay [1] is 2 and 4.

These data come from publication PMC5312968, “Structure, kinetic characterization and subcellular localization of the two ribulose 5-phosphate epimerase isoenzymes from Trypanosoma cruzi” (PLoS ONE, 2017).
